Columns and labels:
MK5 = target: T1, MK5 (Homo sapiens, UniProt Q8IW41); assay: Eurofins kinase selectivity profile, MK5; format: biochemical
T1 construct: purchased Eurofins (Celle Lévescault)
T1 sequence (Q8IW41 1-473): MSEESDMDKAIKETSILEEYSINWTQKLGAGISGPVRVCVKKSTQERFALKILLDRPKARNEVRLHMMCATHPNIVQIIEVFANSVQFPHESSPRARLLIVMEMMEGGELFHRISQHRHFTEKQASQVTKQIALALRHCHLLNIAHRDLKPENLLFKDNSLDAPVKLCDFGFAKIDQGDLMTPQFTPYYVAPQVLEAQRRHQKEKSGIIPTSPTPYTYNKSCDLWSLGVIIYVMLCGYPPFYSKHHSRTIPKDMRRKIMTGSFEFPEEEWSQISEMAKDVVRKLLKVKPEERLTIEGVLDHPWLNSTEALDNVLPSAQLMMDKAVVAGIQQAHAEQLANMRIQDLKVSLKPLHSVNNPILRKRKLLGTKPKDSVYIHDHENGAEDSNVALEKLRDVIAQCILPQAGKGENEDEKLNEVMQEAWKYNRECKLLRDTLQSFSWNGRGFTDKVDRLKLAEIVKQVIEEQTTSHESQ
Experimental: Subsequently, to ascertain whether the high potency of compound 11 was specific for MK2, an additional 380 human recombinant protein kinases were screened.
To assess the impact of various compounds on MK2 kinase activity, we utilized the ADP‐Glo Assay Kit (Promega) following the manufacturer's instructions. Luminescence measurements were taken using a SpectraMax Paradigm reader. The inhibition percentage was calculated using the following formula: ((specific signalDMSO control − specific signal inhibitor)/(specific signalDMSO control)) × 100%. The IC50 values were determined employing dose–response curve fitting via Prism (Graph Pad). Additionally, Eurofins company (Celle Lévescault) conducted the analysis on compound 11’s inhibitory activity against 380 other human recombinant kinases at various concentrations.

[1] = system: p-Hsp27 (Ser82) and p-MK2 (T334) in THP-1 derived macrophages; assay: Western blot of MK2 signaling in LPS-stimulated THP-1 derived macrophages; format: cell-based, human; conditions: 1 h preincubation, LPS 100 ng/mL 30 min
Experimental: FIGURE 4 Targeting cellular MK2 signaling with irreversible inhibition by compound 11. (A and B) RT‐PCR analysis of IL‐1β, TNF‐α, and IL‐6 expression in Lipopolysaccharides (LPS)‐stimulated THP‐1 (A) and RAW264.7 (B) Cells, with pre‐treatment of compound 11 for 3 h followed by LPS (3 h) stimulation. (C) The inhibitory effects of compound 11 on TNF‐α and IL‐6 production in LPS‐stimulated RAW264.7 macrophages for 24 h, measured by ELISA. (D and E) Compound 11, alongside CC‐99677 and PF‐3644022, suppressed MK2 pathway activation, validated through western blot analysis post‐LPS stimulation. Cells were preincubated with the specified compounds for 1 h prior to LPS stimulation (100 ng/mL, 30 min). (F) Distinguishes the mode of action between compound 11 and CC‐99677. The complex structure of a small molecule and MK2 (3R2Y) with the same parent nucleus as compound 11 is shown in cyans, and the complex structure of a small molecule and MK2 (3FYJ) with the same parent nucleus as CC‐99677 is shown in orange. (G–I) The effect of indicated inhibitor on Hsp27 phosphorylation following inhibitor washout. Cells were pretreated with indicated compounds for 1 h and then washed to remove free compound and incubated for a further indicated time before activation with LPS. In (A–C), LPS (100 ng/mL) served as the stimulation control, while untreated cells were the baseline control. The data represent as mean ± SD from triplicates, with statistical analysis conducted via one‐way analysis of variance (ANOVA) (^## p < 0.01, ^### p < 0.001 vs. stimulation control; ^***p < 0.001 vs. baseline control).
Next, the efficacy of compound 11 in cellular MK2 signaling inhibition was evaluated by examining both p‐MK2 and p‐Hsp27 at Ser82 levels, the latter being a direct downstream substrate of p‐MK2. […] We try to explore this interesting phenomenon by superimposing the complex crystal structure (3FYJ) that harboring the same skeleton as CC‐99677 (Figure 4F). […] In that way, CC‐99677 binding to MK2 kinase after pre‐incubation with cells and after LPS stimulation may cause the difference in the spatial conformation of MK2 kinase domain, which may make p38 cannot properly bind to MK2, resulting in a decrease in the phosphorylation of MK2.
After the treatment outlined in the figure legends, cells were lysed using 1× sodium dodecyl sulfate (SDS) solution. The lysates were then subjected to SDS‐polyacrylamide gel electrophoresis for separation, followed by transferring onto nitrocellulose membranes. […] Protein bands were detected using an enhanced chemiluminescence detection reagent (Thermo Fisher Scientific).

Compound: C=CC(=O)Nc1cc(-c2cc(-c3cc4c([nH]3)CCNC4=O)ccn2)ccc1OC(F)(F)F [compound 11]
- IC50 (MK5): > 100 nM
- inhibition at 0.001 µM (MK5; MAPKAP-K5/PRAK(h), 1 nM, read-out: Inhibition rate): -21%
- inhibition at 0.01 µM (MK5; MAPKAP-K5/PRAK(h), 10 nM, read-out: Inhibition rate): 6%
- inhibition at 0.1 µM (MK5; MAPKAP-K5/PRAK(h), 100 nM, read-out: Inhibition rate): 29%
- effect on MK2 phosphorylation at T334 site [1]: did not inhibit
- effect on phosphorylation of Hsp27 (Ser82) [1]: significantly inhibited
